Laboratory results reported in EP0717040A1, “Thiazine or thiazepine derivatives which inhibit NOS” (Japan Tobacco Inc., priority 1994, dated 1996).

Key:
[1] = molecular target: T1, constitutive NO synthase (cNOS) (Rattus norvegicus, UniProt P29476); test: Activity to inhibit constitutive NO synthase (cNOS) derived from rat cerebellum; conversion of [3H]-L-arginine to [3H]-L-citrulline; assay type: biochemical; details: cNOS extracted from rat cerebellum, 10 µM L-arginine, 10 minutes at 25°C; read-out: IC₅₀
T1 construct: cNOS was extracted from a rat cerebellum; from tissue; host or cells: rat cerebellum
Experimental: Activity to inhibit constitutive NO synthase (cNOS) derived from rat cerebellum
The inhibition activity was tested according to a method of P. A. Bush et al. (Biochem, Biophys, Res. Commun., 185, 960-966 (1992)), using [³H]-L-arginine as a substrate and taking the conversion of [³H]-L-arginine to [³H]-L-citrulline as an index of the enzyme activity.
The test was conducted as follows: First, cNOS was extracted from a rat cerebellum with a 50 mM Tris-HCl buffer solution (pH 7.4) which contains 0.1 mM EDTA (ethylenediamine tetraacetate), 0.1 mM EGTA (ethyleneglycol bis(β-aminoethyl ether)-tetraacetate), 0.5 mM DTT (dithiothreitol), 1 µM PMSF (phenylmethylsulfonyl fluoride), 1 µM bestatin A, and 1 µM leupeptin. To the cNOS thus extracted, a 50 mM Tris-HCl buffer solution (pH 7.4) containing 10 µM L-arginine, 10 µM NADPH, 2 mM calcium chloride and calmoduline (0.1 µg), together with a test compound and [³H]-L-arginine were added. The mixture was incubated for 10 minutes at 25°C. The reaction was terminated by adding 20 mM sodium acetate buffer solution (pH 5.5) containing 1 mM L-citrulline, 2 mM EDTA, and 0.2 mM EGTA. The reaction solution was passed through a cation-exchange resin. This eluate was combined with another eluate which was obtained thereafter by eluting with water. To the combined eluate, a liquid scintillation cocktail was further added and its radioactivity (A) was measured. At the same time, the radioactivity (B) with respect to the case where the test compound was not added and the radioactivity (C) with respect to the case where an enzyme fraction was not added, were respectively measured. Then, the rate of cNOS inhibition was calculated in accordance with the following equation. The concentration (IC₅₀), at which the test compound can inhibit 50 % of the enzyme activity, were also calculated. Inhibition rate (%) = {1 - (A - C/B - C)} × 100 [formula]

neuronal NOS (nNOS) = molecular target: T2, neuronal NOS (nNOS) (Rattus norvegicus, UniProt P29476); test: Effect on rat cerebral ischemia model by nNOS inhibition: permanent occlusion model; assay type: in vivo; details: dose 10µg/kg+1µg/kg/min; intravenous 5 minutes after occlusion, then infused for 6 hours; cerebral infarct area after 24 hours
T2 construct: from tissue; host or cells: living rat (brain)
From the text: Effect on rat cerebral ischemia model by neuronal NOS (nNOS) inhibition: permanent occlusion model According to a partly modified method of Tamura et al. (J. Cereb. Blood Flow Matab., 1, 53-60 (1981)), an cerebral ischemia model was established by permanently blocking a rat middle cerebral artery. That is, a rat was anesthetized with laughing gas - oxygen and halothane, and then, a hole was formed at a cranial bone in the periphery of oval foramen, thereby exposing the middle cerebral artery. Subsequently, a middle cerebral artery was clipped and coagulated, thereby established a permanent occlusion model. After 24 hours, a brain was excised out and cerebral infarct area were determined by use of triphenyltetrazolium chloride. A test compound was injected intravenously 5 minutes after the occlusion and subsequently infused for 6 hours. The suppression effect was investigated.

[2] = molecular target: T3, endothelium nitric oxide synthase (eNOS) (Rattus norvegicus, UniProt Q62600); test: Blood pressure elevating activity in rat by inhibition of eNOS; assay type: in vivo; details: dose to elevate mean blood pressure by 25 mmHg; anesthetized rat, administered via femoral vein
T3 construct: from tissue; host or cells: living anesthetized rat
Experimental: Blood pressure elevating activity in rat by inhibition of endothelium nitric oxide synthase (eNOS) A rat was anesthetized with by peritoneal injection of sodium barbital (300 mg/kg) and catheters were inserted into a femoral artery and a femoral vein. Blood pressure was measured through the catheter inserted in the femoral artery and a test compound was administered through the catheter inserted in the femoral vein. […]

[3] = molecular target: inducible NO synthase (iNOS) (Rattus norvegicus, UniProt Q06518); test: Activity to inhibit inducible NO synthase (iNOS) derived from rat macrophages; conversion of [3H]-L-arginine to [3H]-L-citrulline; assay type: biochemical; parameters: iNOS was extracted from the macrophages which have been treated with lipopolysaccharide and interferon-γ; endogenous in cells; host or cells: rat peritoneal macrophages treated with lipopolysaccharide and interferon-γ; details: iNOS from peritoneal macrophages treated with lipopolysaccharide and interferon-γ, 150 µM L-arginine, 30 minutes at 37°C; read-out: IC₅₀
Experimental: Activity to inhibit inducible NO synthase (iNOS) derived from rat macrophages
According to partly modified method of Y. Yui et al.(J. Biol. Chem., 266 (19), 12544-12547 (1991)), an iNOS fraction was prepared by applying lipopolysaccharide and interferon-γ to peritoneal macrophages. Thereafter, its enzymatic activity was measured based on the conversion of [³H]-L-arginine to [³H]-L-citrulline, in the same manner as in the case of cNOS.
To the iNOS thus extracted, a 50 mM Tris-HCl buffer solution (pH 7.4) containing 150 µM L-arginine, 5 mM NADPH, 5 mM DTT, 0.5 mM 5,6,7,8-tetrahydro-L-biopterin and 5 µM FAD was added together with a test compound and [³H]-L-arginine. The mixture was incubated for 30 minutes at 37°C. Thereafter, the reaction was terminated by adding a 25 mM sodium acetate buffer solution (pH 5.5) containing 1.25 mM L-citrulline, 2.5 mM EDTA and 0.25 mM EGTA. The reaction solution was passed through a cation-exchange resin. The obtained eluate was combined with the additional eluate obtained thereafter by eluting with water, and the radioactivity of the combined eluate was measured. The inhibition rate of the test compound on iNOS was calculated in the same manner as in Test 1. The concentration (IC₅₀) of the test compound required for inhibiting 50 % of the enzyme activity, were calculated.

IC50 [1]: 20 nM
Suppression Effect (neuronal NOS (nNOS)): ○ (10µg/kg+1µg/kg/min)
IC50 [3]: 10 nM
SMILES: CCC[C@@H]1CCSC(N)=N1.Cl [Example 31, (R)-2-amino-5,6-dihydro-4-propyl-4H-1,3-thiazine hydrochloride]
ED₂₅ [2]: 0.46 mg/kg
